Reference: US7662973B2, “Fluorescent detection method and reagent” (GE Healthcare UK Limited, priority 2000, dated 2010)
Counter-ions that a name gives are not always drawn.

Legend:
SKOV cells lysate = assay: In vitro evaluation of cassette: ester linker cleavage by cell lysate; format: cell-based; conditions: 20 minutes 37° C., PBS pH 7.4, 1 mM NADH; 450 nm excitation
Protocol: (§1) Cy5Q-Cascade blue cassette (0.8 mM in acetate buffer pH 5.0) was diluted to […] in PBS pH 7.4 containing 1 mM NADH. A cell lysate was prepared from 2×10^7 SKOV cells by re-suspension of scraped cells in 5 ml PBS at 4° C. and repeated passage through a 25 gauge syringe needle. Aliquots (1 ml) of Cy5Q-Cascade blue were incubated with 500 μl of cell lysate or PBS for 20 minutes at 37° C. Following incubation 100 μl of a 1 ng/μl solution of E. coli B nitroreductase was added to one sample and incubation continued for 5 minutes. Aliquots ([…]) were then dispensed in quadruplicate from each sample to a 96 well plate for measurement of fluorescence on a Cytofluor plate reader using 450 nm excitation/530 nm emission filters for cascade blue and 610 nm excitation/670 nm emission for Cy5.

E. coli B nitroreductase = E. coli B nitroreductase (Escherichia coli, UniProt P38489); assay: In vitro evaluation of cassette: reduction by nitroreductase; format: biochemical; conditions: after lysate incubation, 5 minutes with nitroreductase; 610 nm excitation
Protocol: as §1

[1] = biological target: T1, Nitroreductase expressing cells (Escherichia coli, UniProt P38489); assay: Cellular nitroreductase activity in living cells with cell permeable substrates (plate reader); format: cell-based; conditions: 37° C.
T1 construct: expressed in transfected cells
Protocol: Cy3Qee (Formula IIIa) and Cy5Qee (Formula IIIb) were evaluated as cell permeable fluorescence substrates for nitroreductase measurement in living cells. Nitroreductase expressing cells and control cells were cultured at 10,000 cells/well in 96 well plates in tissue culture medium containing 10% foetal calf serum and incubated at 37° C. in the presence of 10 μM Cy3Qee or 30 μM Cy5Qee.

[2] = biological target: T1, Nitroreductase expressing cells; assay: Cellular nitroreductase activity in living cells by flow cytometry; format: cell-based; conditions: 30 μM Cy3Qee, 2 hours 37° C.; 488 nm laser excitation, 585/42 nm emission
Protocol: Nitroreductase expressing cells and control cells were incubated for 2 hours at 37° C. in tissue culture media containing 30 μM Cy3Qee. Following incubation cells were washed with phosphate buffered saline and trypsinised to produce cell suspensions for flow cytometry.
Cells were analysed using a FACScalibur flow cytometer (Becton Dickinson) using 488 nm laser excitation and a 585/42 nm emission filter. Results (FIG. 12) show a significant increase in fluorescence in nitroreductase expressing cells (mean fluorescence 169.9) compared with control cells (mean fluorescence 18.2).

[3] = 30 μM Cy5Qee, 610/20 nm excitation, 670/40 nm emission
[4] = 10 μM Cy3Qee, 530/25 nm excitation, 580/50 nm emission

T1 sequence (P38489 whole entry): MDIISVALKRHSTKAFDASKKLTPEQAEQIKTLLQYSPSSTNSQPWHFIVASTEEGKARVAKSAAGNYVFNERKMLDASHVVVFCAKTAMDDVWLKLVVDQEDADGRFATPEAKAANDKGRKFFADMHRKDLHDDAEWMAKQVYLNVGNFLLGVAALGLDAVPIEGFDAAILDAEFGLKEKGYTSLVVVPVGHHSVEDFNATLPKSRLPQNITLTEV
E. coli B nitroreductase, sequence (P38489 whole entry): as above

## CC1(C)C(/C=C/C=C/C=C2/N(Cc3cc([N+](=O)[O-])cc([N+](=O)[O-])c3)c3ccc(S(=O)(=O)O)cc3C2(C)C)=[N+](CCCCCC(=O)Oc2cc(S(=O)(=O)O)c3ccc4c(S(=O)(=O)[O-])cc(S(=O)(=O)O)c5ccc2c3c45)c2ccc(S(=O)(=O)O)cc21 [Cy5Q-Cascade blue cassette]
SKOV cells lysate
  fluorescence emission at 530 nm (Cascade Blue) in the presence of cell lysate: increase of fluorescence emission
E. coli B nitroreductase
  fluorescence emission at 670 nm (Cy5) when nitroreductase enzyme is present: increase in fluorescence emission

## CCOC(=O)Cc1ccc2c(c1)C(C)(C)C(/C=C/C=C/C=C1/N(C)c3ccc(CC(=O)OCC)cc3C1(C)C)=[N+]2Cc1cc([N+](=O)[O-])cc([N+](=O)[O-])c1 [Cy5Qee, 1-(3,5-dinitrobenzyl)-5-(2-ethoxy-2-oxoethyl)-2-{(1E,3E)-5-[6-(2-ethoxy-2-oxoethyl)-1,1,3-trimethyl-1,3-dihydro-2H-indol-2-ylidene]-1,3-pentadienyl}-3,3-dimethyl-3H-indoluim Salt]
[1]; [3]
  fluorescence in control cells: minimal changes in fluorescence
  fluorescence in nitroreductase expressing cells: significant time dependent increase in fluorescence

## CCOC(=O)Cc1ccc2c(c1)C(C)(C)C(/C=C/C=C1/N(C)c3ccc(CC(=O)OCC)cc3C1(C)C)=[N+]2Cc1cc([N+](=O)[O-])cc([N+](=O)[O-])c1 [Cy3Qee]
[1]; [4]
  fluorescence in control cells: minimal changes in fluorescence
  fluorescence in nitroreductase expressing cells: significant time dependent increase in fluorescence
[2]
  mean fluorescence, control cells: 18.2
  mean fluorescence, nitroreductase expressing cells: 169.9
